# ChEMBL document CHEMBL1201862, “PubChem BioAssay data set” (2004)
#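 Test compounds were applied to cells in 96-well plates for 48 hours at 5 doses. GI50 = concentration required for 50% inhibition of growth.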 Activity calls are given as the source filed them. No stated cut-off is given here; in the data, active = GI50 up to about 1.1 µM and inactive = higher.
# Legend:
# Experiment in all cases: NCI-60 cell line screen, 48 h
# A549 = test system: A549
# UACC-257 = test system: UACC-257
# 786-0 = test system: 786-0
# ACHN = test system: ACHN
# OVCAR-4 = test system: OVCAR-4
# TK-10 = test system: TK-10
# RPMI-8226 = test system: RPMI-8226
# HT-29 = test system: HT-29
# DU-145 = test system: DU-145
# PC-3 = test system: PC-3
# A498 = test system: A498
# NCI-H522 = test system: NCI-H522
# NCI-H23 = test system: NCI-H23
# HCC 2998 = test system: HCC 2998
# SK-MEL-5 = test system: SK-MEL-5
# SK-MEL-2 = test system: SK-MEL-2
# MDA-MB-435 = test system: MDA-MB-435
# Malme-3M = test system: Malme-3M
# IGROV-1 = test system: IGROV-1
# RXF 393 = test system: RXF 393
SMILES,GI50 (A549),GI50 (UACC-257),GI50 (786-0),GI50 (ACHN),GI50 (OVCAR-4),GI50 (TK-10),GI50 (RPMI-8226),GI50 (HT-29),GI50 (DU-145),GI50 (PC-3),GI50 (A498),GI50 (NCI-H522),GI50 (NCI-H23),GI50 (HCC 2998),GI50 (SK-MEL-5),GI50 (SK-MEL-2),GI50 (MDA-MB-435),GI50 (Malme-3M),GI50 (IGROV-1),GI50 (RXF 393)
O=C1c2ccccc2C(=O)c2c1ccc(C(=O)O)c2-c1ccc2ccccc2c1,30.5 µM (inactive),49.8 µM (inactive),28.2 µM (inactive),30.8 µM (inactive),30.8 µM (inactive),61.2 µM (inactive),27.7 µM (inactive),32.5 µM (inactive),16.2 µM (inactive),24.5 µM (inactive),29 µM (inactive),23.7 µM (inactive),18.6 µM (inactive),25.9 µM (inactive),16.9 µM (inactive),19.1 µM (inactive),23.8 µM (inactive),24.1 µM (inactive),13.7 µM (inactive),–
COc1cc2c(c(N)c1OC)C(=O)/C(=C/c1cc(C)c(O)c(C)c1)C2,< 0.01 µM (active),> 100 µM (inactive),< 0.01 µM (active),–,7.91 µM (inactive),> 76 µM (inactive),< 0.01 µM (active),2.64 µM (inactive),< 0.01 µM (active),< 0.01 µM (active),7.13 µM (inactive),< 0.01 µM (active),< 0.01 µM (active),1.95 µM (inactive),< 0.01 µM (active),–,< 0.01 µM (active),–,0.0367 µM (active),0.0323 µM (active)
O=C(NC(C(F)(F)F)(C(F)(F)F)P(=O)(Cc1ccccc1)Cc1ccccc1)C(C(F)(F)F)C(F)(F)F,25.9 µM (inactive),22.6 µM (inactive),17.2 µM (inactive),19.7 µM (inactive),–,21.8 µM (inactive),25.2 µM (inactive),19.8 µM (inactive),37.8 µM (inactive),21.5 µM (inactive),17.3 µM (inactive),26.2 µM (inactive),19.7 µM (inactive),27.5 µM (inactive),15.4 µM (inactive),26.4 µM (inactive),17.4 µM (inactive),19.1 µM (inactive),18.5 µM (inactive),21 µM (inactive)
CCOC(=O)C1(Cc2c[nH]c3ccccc23)C(O)CCCN1C(C)=O (configuration not stated),> 100 µM (inactive),> 100 µM (inactive),> 100 µM (inactive),> 100 µM (inactive),> 100 µM (inactive),> 100 µM (inactive),> 100 µM (inactive),> 100 µM (inactive),> 100 µM (inactive),> 100 µM (inactive),> 100 µM (inactive),–,> 100 µM (inactive),> 100 µM (inactive),> 100 µM (inactive),> 100 µM (inactive),> 100 µM (inactive),> 100 µM (inactive),> 100 µM (inactive),> 100 µM (inactive)
O=C(O)c1ccccc1/C=N\N=C1NCCCCN1,> 100 µM (inactive),> 100 µM (inactive),> 100 µM (inactive),> 100 µM (inactive),> 100 µM (inactive),> 100 µM (inactive),> 100 µM (inactive),> 100 µM (inactive),> 100 µM (inactive),> 100 µM (inactive),> 100 µM (inactive),> 100 µM (inactive),> 100 µM (inactive),> 100 µM (inactive),> 100 µM (inactive),> 100 µM (inactive),> 100 µM (inactive),> 100 µM (inactive),> 100 µM (inactive),–
NC1CC(=O)c2c(Br)csc21 (configuration not stated),> 100 µM (inactive),40.2 µM (inactive),82 µM (inactive),52 µM (inactive),–,32.5 µM (inactive),38.5 µM (inactive),40.6 µM (inactive),> 100 µM (inactive),39.3 µM (inactive),78 µM (inactive),–,–,19.2 µM (inactive),61.9 µM (inactive),41 µM (inactive),21.2 µM (inactive),46.8 µM (inactive),33 µM (inactive),54.7 µM (inactive)
O=P1(N(CCCl)CCCl)Oc2c(Cl)cc(Cl)c(Cl)c2Cc2c(Cl)c(Cl)cc(Cl)c2O1,38.5 µM (inactive),59.7 µM (inactive),90.4 µM (inactive),51.1 µM (inactive),26.7 µM (inactive),25 µM (inactive),64.3 µM (inactive),41.4 µM (inactive),71.1 µM (inactive),23.2 µM (inactive),> 100 µM (inactive),31 µM (inactive),21.4 µM (inactive),25.2 µM (inactive),77.3 µM (inactive),22 µM (inactive),60.5 µM (inactive),–,–,> 100 µM (inactive)
O=Cc1cn(CCCCCCCCCCCCn2cc(C=O)c3ccccc32)c2ccccc12,56 µM (inactive),2.47 µM (inactive),> 100 µM (inactive),4.88 µM (inactive),–,> 100 µM (inactive),–,> 100 µM (inactive),> 100 µM (inactive),33.3 µM (inactive),61 µM (inactive),38.3 µM (inactive),3.53 µM (inactive),> 100 µM (inactive),0.611 µM (active),> 100 µM (inactive),5.22 µM (inactive),> 100 µM (inactive),> 100 µM (inactive),> 100 µM (inactive)
COc1cc(Oc2nc3ccc(C(F)(F)F)cc3nc2-c2ccccc2)cc(OC)c1OC,17.1 µM (inactive),48.8 µM (inactive),3.21 µM (inactive),11.6 µM (inactive),6.58 µM (inactive),30.1 µM (inactive),36.8 µM (inactive),21.2 µM (inactive),> 100 µM (inactive),22.6 µM (inactive),32.9 µM (inactive),25.1 µM (inactive),35.4 µM (inactive),36.2 µM (inactive),14.5 µM (inactive),–,30.4 µM (inactive),87.9 µM (inactive),58.2 µM (inactive),11 µM (inactive)
CS(=O)(=O)OCC1CCCCCCCCCCC12SCCCS2 (configuration not stated),> 100 µM (inactive),> 100 µM (inactive),> 100 µM (inactive),> 100 µM (inactive),> 100 µM (inactive),> 100 µM (inactive),–,> 100 µM (inactive),> 100 µM (inactive),> 100 µM (inactive),> 100 µM (inactive),> 100 µM (inactive),> 100 µM (inactive),> 100 µM (inactive),> 100 µM (inactive),> 100 µM (inactive),> 100 µM (inactive),> 100 µM (inactive),> 100 µM (inactive),> 100 µM (inactive)
Cc1c(Cl)c(S(N)(=O)=O)cc2c1N=CNS2(=O)=O,> 100 µM (inactive),> 100 µM (inactive),> 100 µM (inactive),> 100 µM (inactive),> 100 µM (inactive),> 100 µM (inactive),> 100 µM (inactive),> 100 µM (inactive),> 100 µM (inactive),> 100 µM (inactive),> 100 µM (inactive),> 100 µM (inactive),> 100 µM (inactive),> 100 µM (inactive),> 100 µM (inactive),–,> 100 µM (inactive),> 100 µM (inactive),> 100 µM (inactive),> 100 µM (inactive)
O=C(O)CCC(=O)Nc1ccc2c(c1)S(=O)(=O)N(CC(=O)O)C2=O,> 100 µM (inactive),> 100 µM (inactive),> 100 µM (inactive),> 100 µM (inactive),> 100 µM (inactive),> 100 µM (inactive),> 100 µM (inactive),> 100 µM (inactive),> 100 µM (inactive),> 100 µM (inactive),> 100 µM (inactive),> 100 µM (inactive),> 100 µM (inactive),> 100 µM (inactive),> 100 µM (inactive),> 100 µM (inactive),> 100 µM (inactive),39.2 µM (inactive),> 100 µM (inactive),–
COc1cc2c(cc1OC)[C@H](C)N1CCc3cc(OC)c(OC)cc3[C@@H]1C2,> 100 µM (inactive),> 100 µM (inactive),> 100 µM (inactive),> 100 µM (inactive),> 100 µM (inactive),> 100 µM (inactive),> 100 µM (inactive),> 100 µM (inactive),> 100 µM (inactive),> 100 µM (inactive),> 100 µM (inactive),> 100 µM (inactive),> 100 µM (inactive),> 100 µM (inactive),> 100 µM (inactive),> 100 µM (inactive),> 100 µM (inactive),> 100 µM (inactive),> 100 µM (inactive),–
C#Cc1cccc(N2C(=O)CCC2=O)c1,21.4 µM (inactive),15.6 µM (inactive),18 µM (inactive),16.7 µM (inactive),13.1 µM (inactive),16.2 µM (inactive),2.49 µM (inactive),12.1 µM (inactive),14.4 µM (inactive),15.2 µM (inactive),15.6 µM (inactive),4.17 µM (inactive),14.7 µM (inactive),15 µM (inactive),20.5 µM (inactive),19.9 µM (inactive),17.3 µM (inactive),14.7 µM (inactive),21.5 µM (inactive),–
CON(C)C(=O)C(C)N(Cc1ccccc1)Cc1ccccc1 (configuration not stated),57 µM (inactive),82 µM (inactive),> 100 µM (inactive),74.8 µM (inactive),–,> 100 µM (inactive),42.8 µM (inactive),79.1 µM (inactive),> 100 µM (inactive),19.1 µM (inactive),> 100 µM (inactive),–,46.3 µM (inactive),> 100 µM (inactive),41.3 µM (inactive),–,88.9 µM (inactive),> 100 µM (inactive),88.5 µM (inactive),> 100 µM (inactive)
